Measurements: patent publication US8241393B2, “Methods and articles for gold nanoparticle production” (The Curators of the University of Missouri, priority 2005, dated 2012)

Test: Stabilization/storage of gold nanoparticles by exposure to a phosphino amino acid
Assay type: physicochemical
Text: In addition to tuning particle size, an important purpose of stabilizers is to prevent agglomeration and/or oxidation of the gold nanoparticles during storage. All of the stabilizers identified above have been discovered to provide beneficial stability for gold nanoparticles produced through methods of the invention. […] Carbohydrates are an additional stabilizer discovered to be useful with practice of methods of the invention. More than one stabilizer may be employed. Any selected stabilizer can be added at any time during the synthesis of the nanoparticles. Preferably, the stabilizer is present in solution prior to introduction of the final reactant (i.e., one or both of gold salt and phosphino amino acid are added to a solution that already contains a stabilizer).
Still additional example methods of the invention are directed to methods for storing and/or stabilizing gold nanoparticles. It has been discovered the use of phosphino amino acids, with TAAC being a preferred example, provide beneficial levels of stability for storing gold nanoparticles. In an example method of the invention, gold nanoparticles (that may have been, for example, produced through a method other than one of the present invention) are exposed to a phosphino amino acid such as TAAC to prevent their agglomeration.

- prevention of agglomeration of gold nanoparticles (over periods of 7, 14 and even 30 days): substantially prevent agglomeration
Compound: CC(NCP(CNC(C)C(=O)O)CNC(C)C(=O)O)C(=O)O (centres unmarked) [TAAC, trimeric alanine phosphine conjugate]
- protection of gold nanoparticles from oxidation: help “protect” gold nanoparticles from oxidation
